The source of these data is patent publication US20050191283A1, “Methods of treating NFAT-related disorders” (priority 2003, published 2005).

Test [1] deals with IFN-γ expression in UCB T lymphocytes. The test is described as follows: Intracellular IFN-γ staining in gated CD3+ cells of UCB MNC. The settings on record: for average percentage of T cells producing IFN-γ: whole UCB MNC. The format is cell-based, human. As for the experimental part: (§1) Human umbilical cord blood from full-term deliveries by vaginal or caesarean sections and adult peripheral blood from healthy donors was collected according to guidelines by the Institutional Review Board at University Hospitals of Cleveland. Mononuclear cells (MNC) were isolated by gradient centrifugation, as previously described (6) and used immediately fresh.
(§2) Total MNC were stimulated in bulk culture as previously described (6). Briefly, 2×10^6 cells/ml were stimulated with 2 μg/ml of concanavalin A (ConA) (Sigma Chemical Co, St Louis, Mo.) in complete RPMI medium (Gibco BRL, Gaithersburg, Md.), containing 10% fetal bovine serum (Gibco BRL), 1 mM Sodium-pyruvate, 0.1 mM nonessential amino acids, 10 mM HEPES and 58 μM 2-mercaptoethanol (Sigma Chemical Co), in presence or absence of the manufacturer's recommended concentration of 1 μg/ml of cyclosporin A (CsA) (Sigma Chemical Co), as previously described (7). Where specified, IFN-γ (Roche, Indianapolis, Ind.) was added at indicated concentrations, or neutralizing anti-IFN-γ antibody (R&D Systems, Minneapolis, Minn.) was added at a concentration of 0.25-2 μg/ml. Purified T cells were stimulated as described (26), with plate-bound anti-CD3 (1 μg/ml) and soluble anti-CD28 (5 μg/ml) monoclonal antibodies. Elispot assays were performed as previously described (27). Briefly, ImmunoSpot plates M200 (Cellular Technology Limited, Cleveland Ohio) were coated with capture antibody for IFN-γ M700A-E (2 μg/ml; Endogen, Woburn, Mass.), washed and MNC were plated in complete RPMI medium with 5% ABO serum (Gemini Bioproducts, Calmasas, Calif.)+1% L-glutamine, at 3×10^5 per well. Cells were stimulated with irradiated 3×10^5 T-cell-depleted MNC from a healthy adult or cord blood. T cells were depleted with RosetteSep (StemCell Technologies, Vancouver, Canada), according to manufacturer's directions. After 24 h of stimulation, plates were washed and incubated over night with secondary biotinylated detection antibodies against IFN-γ M701 (0.5 μg/ml; Endogen, Woburn, Mass.). Streptavidin-HRP conjugate (Dako Corp., Carpenteria Calif.) was added and the spots were visualized using the HRP-substrate AEC (Pierce Pharmaceuticals, Rockford Ill.), and subjected to image analysis on a Series 1 ImmunoSpot Image Analyzer (Cellular Technology, Cleveland, Ohio) specifically designed for automated evaluation of ELISPOTs.
MNC from UCB were depleted of monocytes by using monoclonal antibody against CD11b (Pharmingen), followed by anti-IgG magnetic bead (Dynal) depletion as above, or by using anti-CD14 microbeads (Miltenyi Biotech Inc., Auburn, Calif.) and AutoMACS (Miltenyi Biotech Inc.), according to manufacturer's protocol.
Intracellular IFN-γ staining was performed as described previously (6, 7). […] 1×10^6 cells were stained for 30 minutes with the following antibodies: anti-IFN-γ-FITC or -PE (R&D Systems), anti-CD3-APC (Pharmingen), and anti-CD69-PE (Pharmingen) or -PerCP (Becton Dickinson, San Jose, Calif.) and the corresponding isotype controls (Pharmingen, Becton Dickinson). 20,000-80,000 events were acquired on a calibrated Elite ESP flow cytometer (Coulter, Miami, Fla.) and data were analyzed with WinList software (Verity Software House Inc, Topsham, Minn.). For intracellular staining of NFATc2, the same monoclonal antibody clone as used in immunoblotting was custom FITC-conjugated (Transduction Laboratories) and used at a titrated concentration of 1 μg/10^6 cells.

Test [2] deals with NFATc2 expression in UCB T lymphocytes. The test is described as follows: NFATc2 protein expression by intracellular flow cytometry in gated CD3+ cells of UCB MNC. The format is cell-based, human. The following applies: for NFATc2 expression (dual staining for NFATc2 and IFN-γ): ConA alone or ConA + 100 U/ml IFN-γ. As for the experimental part: as §1, §2
Intracellular IFN-γ staining was performed as described previously (6, 7). Briefly, MNC were stimulated for the indicated time points, for the last 6-8 h in the presence of 5 μg/ml of Brefeldin A (Sigma Chemical Co), and permeabilized. […] 20,000-80,000 events were acquired on a calibrated Elite ESP flow cytometer (Coulter, Miami, Fla.) and data were analyzed with WinList software (Verity Software House Inc, Topsham, Minn.). […]
On the technique in general: In flow cytometry, cells or beads pass a laser one at a time.

Test [3] deals with IFN-γ expression in purified UCB T cells. In words: Intracellular IFN-γ staining in purified UCB T cells. The format is cell-based, human. As for the experimental part: as §1
(§3) Total MNC were stimulated in bulk culture as previously described (6). Briefly, 2×10^6 cells/ml were stimulated with 2 μg/ml of concanavalin A (ConA) (Sigma Chemical Co, St Louis, Mo.) in complete RPMI medium (Gibco BRL, Gaithersburg, Md.), containing 10% fetal bovine serum (Gibco BRL), 1 mM Sodium-pyruvate, 0.1 mM nonessential amino acids, 10 mM HEPES and 58 μM 2-mercaptoethanol (Sigma Chemical Co), in presence or absence of the manufacturer's recommended concentration of 1 μg/ml of cyclosporin A (CsA) (Sigma Chemical Co), as previously described (7). Where specified, IFN-γ (Roche, Indianapolis, Ind.) was added at indicated concentrations, or neutralizing anti-IFN-γ antibody (R&D Systems, Minneapolis, Minn.) was added at a concentration of 0.25-2 μg/ml. […]
(§4) Intracellular IFN-γ staining was performed as described previously (6, 7). […] 20,000-80,000 events were acquired on a calibrated Elite ESP flow cytometer (Coulter, Miami, Fla.) and data were analyzed with WinList software (Verity Software House Inc, Topsham, Minn.). […]

The test system of test [4] is NFATc2 expression in adult T lymphocytes. In words: NFATc2 protein expression by intracellular flow cytometry in gated CD3+ cells of stimulated adult MNC. The format is cell-based, human. The following applies: adult MNC stimulated 24 h, exogenous IFN-γ 100 U/ml. As for the experimental part: as §1, §3, §4
Test [5] has as its system IFN-γ expression in purified adult T cells. The test is described as follows: Intracellular IFN-γ staining in purified adult T cells. The format is cell-based, human. The following applies: anti-CD3/CD28 24 h, exogenous IFN-γ 100 U/ml. As for the experimental part:
as §1, §3, §4

In test [6] the test system is IFN-γ expression by UCB MNC. The settings on record: exogenous IL-12 added to the stimulation conditions; cited from earlier work.
The mark [7] stands for this setting: experiment 1, whole UCB MNC, 24 h.
Where [8] appears, read: experiment 2, whole UCB MNC, 24 h.
Setting [9] is: experiment 3, whole UCB MNC, 24 h.
The mark [10] stands for this setting: experiment 4, whole UCB MNC, 24 h.

“Also recorded” adds a separate entry of the source.

On to TNF-A, for which, in test [1] (UCB MNC, ConA 24 h, TNF-A (1 ng/ml) or IL-2 added in place of IFN-γ), the “upregulation of IFN-γ expression” value is given as “did not result in upregulation of IFN-γ expression”.
As to `C[C@H]1CCC/C=C/[C@@H]2C[C@H](O)C[C@H]2[C@H](O)/C=C/C(=O)O1` [Brefeldin A, reference compound], the “upregulation of IFN-γ in UCB T cells” value in test [1] (UCB MNC, ConA ± IFN-γ 100 U/ml, BFA added immediately and for the whole stimulation (BFA 24 h)) is recorded as “no upregulation of IFN-γ could be observed”.
For the molecule “concanavalin A [ConA, reference compound]”, the “NFATc2 expression (dual staining for NFATc2 and IFN-γ)” value in test [2] is recorded as “increase in NFATc2 upregulation”. The IFN-γ expression entry in test [1] (UCB MNC, ConA alone) is given as “only a slight increase in IFN-γ expression”. Also, the “percentages of CD3+ cells positive for IFN-γ staining” value (shortened to “percentages of CD3+ cells positive”) stood at 0.96% in test [1] (setting [7]), 0.78% in test [1] (setting [8]), 0.96% in test [1] (setting [9]) and 1.05% in test [1] (setting [10]). In addition, the “average percentage of T cells producing IFN-γ” value in test [1] (n=4) worked out at 0.9%.
For the molecule “IFN-γ: IFN-γ (Roche, Indianapolis, Ind.) added exogenously during stimulation”, in test [2] (ConA 16 h, added IFN-γ 10-1,000 U/ml, gated CD3+ cells), the NFATc2 protein expression result is given as “increased in a dose dependent manner”. In addition, in test [2], the “NFATc2 expression (dual staining for NFATc2 and IFN-γ)” value is reported as “strong increases of NFATc2 expression”. Besides, in test [2] (absence of stimulation, IFN-γ alone 100 U/ml), the NFATc2 levels result is “intermediate between unstimulated and stimulated T lymphocytes; also recorded: only slightly increased NFATc2 expression”. In addition, the IFN-γ rescue effect entry in test [3] (ConA, IFN-γ added) is “no IFN-γ rescue effect was observed”. For the same molecule, the IFN-γ expression entry in test [3] (anti-CD3/CD28 24 h, exogenous IFN-γ 100 U/ml) was “could not be rescued”; in test [1] (UCB MNC, no stimulation, IFN-γ alone 100 U/ml), “did not stimulate IFN-γ expression”; in test [5] it was “no increase in IFN-γ expression was observed”. Moreover, the IFN-γ-mediated rescue effect result in test [1] (UCB MNC depleted of B cells and NK cells) was “did not result in a significant loss of the IFN-γ-mediated rescue effect”. The “average percentage of IFN-γ producing T cells” value in test [1] (UCB MNC depleted of monocytes prior to stimulation, ConA + IFN-γ, n=4) was 1.0%. In test [1] (UCB MNC, ConA 24 h, exogenous IFN-γ 100 U/ml), the “percentages of IFN-γ-expressing T lymphocytes” value was “rose close to that measured in adult T lymphocytes”. Moreover, the “lowest dose of exogenous IFN-γ with effective IFN-γ rescue” value in test [1] (UCB MNC, ConA stimulation, dose titrated down) was found to be 50 U/ml. In addition, the “percentages of CD3+ cells positive” value in test [1] (experiment 1, UCB MNC depleted of CD11b, 24 h) turned out to be 0.89%; in test [1] (setting [7]) it was 1.38%; in test [1] (experiment 2, UCB MNC depleted of CD11b, 24 h) it was 0.92%; in test [1] (setting [8]) it was 1.41%; in test [1] (experiment 3, UCB MNC depleted of CD11b, 24 h), 1.30%; in test [1] (setting [9]), 1.74%. The “percentages of CD3+ cells positive” value in test [1] (experiment 4, UCB MNC depleted of CD14, 24 h) amounted to 1.07%; in test [1] (setting [10]) it was 1.83%. In addition, the “average percentage of T cells producing IFN-γ” value in test [1] (n=4) was determined as 1.6%. Besides, the NFATc2 expression entry in test [4] is given as “further upregulation of NFATc2”.

B1: IL-12: exogenous cytokine, literature result (ref 44) (protein, UniProt P29459 23-219; P29460 23-328, looked up)
Interleukin-12 subunit alpha: RNLPVATPDPGMFPCLHHSQNLLRAVSNMLQKARQTLEFYPCTSEEIDHEDITKDKTSTVEACLPLELTKNESCLNSRETSFITNGSCLASRKTSFMMALCLSSIYEDLKMYQVEFKTMNAKLLMDPKRQIFLDQNMLAVIDELMQALNFNSETVPQKSSLEEPDFYKTKIKLCILLHAFRIRAVTIDRVMSYLNAS
Interleukin-12 subunit beta: IWELKKDVYVVELDWYPDAPGEMVVLTCDTPEEDGITWTLDQSSEVLGSGKTLTIQVKEFGDAGQYTCHKGGEVLSHSLLLLHKKEDGIWSTDILKDQKEPKNKTFLRCEAKNYSGRFTCWWLTTISTDLTFSVKSSRGSSDPQGVTCGAATLSAERVRGDNKEYEYSVECQEDSACPAAEESLPIEVMVDAVHKLKYENYTSSFFIRDIIKPDPPKNLQLKPLKNSRQVEVSWEYPDTWSTPHSYFSLTFCVQVQGKSKREKKDRVFTDKTSATVICRKNASISVRAQDRYYSSSWSEWASVPCS
With B1, the “IFN-γ expression by UCB MNC” value in test [6] is “could be increased”.
